# Experimental data taken from article PMC4587935, “Structure and Sialyllactose Binding of the Carboxy-Terminal Head Domain of the Fibre from a Siadenovirus, Turkey Adenovirus 3” (PLoS ONE, 2015).
# Assays:
# [1] = test system: His-tagged TAdV-3 fibre head protein; test: Glycan microarray binding assay; design: species or system turkey adenovirus 3 (TAdV-3); settings: for inhibition of fibre head binding to the glycan microarray: in the presence of 100 mM sugar; for fluorescence intensity on glycan microarray: binding threshold approximately 1,600 RFU (five times background)
# Method: The proteins were profiled on neoglycoconjugate microarrays to identify potential glycan ligands for TAdV-3 fibre head proteins. The microarrays were constructed as previously described and presented 71 different simple to complex glycans on glycoproteins or attached to protein backbones through linkers (S1 Table). Several viral protein concentrations were titrated in Tris-buffered saline supplemented with Ca^2+ and Mg^2+ ions (TBS; 20 mM Tris-HCl, 100 mM NaCl, 1 mM CaCl2, 1 mM MgCl2, pH 7.2) and with 0.05% Tween 20 (TBS-T). It was determined that 10 μg/ml in TBS-T was the concentration for optimal signal to noise ratio. Similarly, the concentration of the anti-6XHis IgG-CF640R (Sigma Aldrich, Tres Cantos, Spain) monoclonal antibody for detection of viral protein binding was optimized and a 1 in 750 dilution in TBS-T was subsequently used.
# Two-step incubations were carried out as previously described with minor modifications. First, the viral proteins were incubated on the microarray slides for 1 h at 23°C and 4 rpm. The microarray slides and gaskets were then separated while submerged under TBS-T, washed 3 times in TBS-T for 2 min each with gentle agitation in a Coplin jar, with a final 2 min wash in TBS. After centrifuging to dry the slides (1,500 rpm, 5 min), all subsequent steps were carried out in the dark. The microarray slides were incubated with the fluorescently labelled anti-6XHis IgG as in the first step, washed and dried by centrifugation and scanned immediately on an Agilent G2505 microarray scanner using the Cy5 channel (633 nm excitation, 80% PMT, 5 mm resolution). All experiments were carried out in triplicate and binding inhibition assays were performed in parallel in the presence of 100 mM galactose and lactose to verify specific binding. Data extraction and analysis was carried out as previously described. Binding was taken as above an experimental threshold of five times the background, which was approximately 1,600 relative fluorescence units (RFU) in this case.
# [2] = target: TAdV-3 fiber head mutant E392A (avirulent context) (Turkey adenovirus 3, UniProt A0ABF7PFF5, E392A); test: biochemical; assay type: binding, turkey adenovirus 3 (TAdV-3)
# [3] = target: TAdV-3 fiber head mutant K421A (avirulent context); settings: ITC, 25°C, pH 6.0; n.o. = no binding observed
# [4] = target: T1, TAdV-3 fibre head (virulent) (Turkey adenovirus 3, UniProt Q9YUQ4); test: Isothermal titration calorimetry (ITC), virulent fibre head; assay type: binding, turkey adenovirus 3 (TAdV-3); settings: 25°C
# T1 sequence (Q9YUQ4 304-454): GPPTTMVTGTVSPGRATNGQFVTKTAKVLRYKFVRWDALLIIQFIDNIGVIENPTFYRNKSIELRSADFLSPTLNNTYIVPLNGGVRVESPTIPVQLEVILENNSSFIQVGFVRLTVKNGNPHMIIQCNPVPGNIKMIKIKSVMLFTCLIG
# Method: (§1) Isothermal titration calorimetry (ITC) was performed at 25°C with a Microcal VP-ITC microcalorimeter (GE Healthcare, Madrid, Spain). The proteins were exhaustively dialyzed against the appropriate buffer (10 mM MES-NaOH pH 6.0 or 20 mM Tris-HCl, 100 mM NaCl pH 7.2), and sialyllactose solutions were prepared in the final dialysate. Titrations were performed by stepwise injections of the 3'- or 6'-sialyllactose-containing solution (21–40 mM) into the reaction cell loaded with the protein at concentrations of 78–474 μM. When required, a second set of injections followed the first one after refilling the injection pipette with the same sialyllactose solution. The CONCAT32 (GE Healthcare) program was used to concatenate the raw data of both series. The heat of ligand dilution was determined separately and subtracted from the total heat produced following each injection. Protein concentrations were determined spectrophotometrically at 280 nm using the predicted monomeric molar extinction coefficient (10,095 OD cm^-1 M^-1). Titration data were analyzed with the ORIGIN software (GE Healthcare).
# [5] = test system: virulent TAdV-3 fibre head; test: Saturation transfer difference NMR (STD-NMR), virulent variant; assay type: binding, turkey adenovirus 3 (TAdV-3); settings: 1.5 mM ligand, 15 μM protein, phosphate pH 7.7, 298 K
# Method: (§2) Saturation transfer difference nuclear magnetic resonance spectroscopy (STD-NMR) experiments were performed at 298 K in an AVANCE 500 MHz spectrometer (Bruker, Rivas Vaciamadrid, Spain) equipped with a 5 mm inverse probe head. STD experiments were performed in fully deuterated 10 mM potassium phosphate pH 7.7. Samples contained 1.5 mM of either 3'- or 6'-sialyllactose and 15 μM of either the virulent or the avirulent versions of TAdV-3 fibre head. The protein was saturated on-resonance at 0.5 ppm and off-resonance at 100 ppm with a train of Gaussian-shaped pulses of 50 ms each, totalling an irradiation time of 2 s. A T2 relaxation filter consisting of a 15 ms 5 kHz spin-lock was used to reduce the protein background signals. STD spectra were obtained by subtracting the on-resonance spectra from the off-resonance spectra. STD intensities were measured comparing each STD spectrum with the correspondent off-resonance spectrum and normalizing to the ligand peak receiving the highest degree of saturation (in all cases, the 5''-N-acetyl). The resonances of 3'- or 6'-sialyllactose were assigned by standard procedures (^1H-^1H TOCSY 70 ms, ^1H-^1H ROESY 600 ms and phase-sensitive ^1H-^13C HSQC). Data were analyzed with TOPSPIN (Bruker) and figures were made with MESTRENOVA (Mestrelab Research, Santiago de Compostela, Spain).
# [6] = target: TAdV-3 fiber head mutant N407A (avirulent context) (Turkey adenovirus 3, UniProt A0ABF7PFF5, N407A); test: biochemical; assay type: binding, turkey adenovirus 3 (TAdV-3)
# [7] = test system: avirulent TAdV-3 fibre head; test: Saturation transfer difference NMR (STD-NMR), avirulent variant; assay type: binding, turkey adenovirus 3 (TAdV-3); settings: 1.5 mM ligand, 15 μM protein, phosphate pH 7.7, 298 K
# Method: as §2
# [8] = target: TAdV-3 fiber head mutant R368A (avirulent context) (Turkey adenovirus 3, UniProt A0ABF7PFF5, R368A); test: biochemical; assay type: binding, turkey adenovirus 3 (TAdV-3)
# [9] = target: TAdV-3 fibre head (avirulent) (Turkey adenovirus 3, UniProt A0ABF7PFF5); test: Isothermal titration calorimetry (ITC), avirulent fibre head; assay type: binding, turkey adenovirus 3 (TAdV-3); settings: 25°C
# Method: as §1
# [10] = target: TAdV-3 fiber head mutant K439A (avirulent context) (Turkey adenovirus 3, UniProt A0ABF7PFF5, K439A); test: biochemical; assay type: binding, turkey adenovirus 3 (TAdV-3)
# [11] = pH 6.0, three independent sites per trimer
# [12] = 10 μg/ml protein in TBS-T pH 7.2
Compound,inhibition of fibre head binding to the glycan microarray [1],"Kd [4, 11] [mM]",Kd ([4]; pH 7.2) [mM],STD-NMR interaction (saturation transfer) [5],"fluorescence intensity on glycan microarray [1, 12]",STD-NMR interaction (saturation transfer) [7],"Kd [9, 11] [mM]",Kd ([9]; pH 7.2) [mM],further results
OC[C@H]1O[C@@H](O[C@H]2[C@H](O)[C@@H](O)C(O)O[C@@H]2CO)[C@H](O)[C@@H](O)[C@H]1O (mixture of isomers) [lactose],No binding inhibition,–,–,–,–,–,–,–,–
CC(=O)NC1C(O)CC(OC2C(O)C(CO)OC(OC3C(CO)OC(O)C(O)C3O)C2O)(C(=O)O)OC1C(O)C(O)CO (stereo not shown) [3'-sialyllactose],–,5.5 ± 0.1,~37,saturation transfer was observed,"5,000 RFU",saturation transfer was observed,3.64 ± 0.01,~24,"Kd [2]: ~20 mM; Kd [3]: n.o. ^d; - ΔH ([4]; pH 6.0): 1.83 ± 0.03 kcal/mol of sites; - ΔS ([4]; pH 6.0): -4.19 ± 0.07 cal/mol of sites/deg; Kd [6]: 2.77 ± 0.04 mM; - ΔH ([6]; ITC, 25°C, pH 6.0): 4.66 ± 0.04 kcal/mol of sites; - ΔS ([6]; ITC, 25°C, pH 6.0): 3.9 ± 0.1 cal/mol of sites/deg; Kd [8]: 3.23 ± 0.03 mM; - ΔH ([8]; ITC, 25°C, pH 6.0): 3.86 ± 0.02 kcal/mol of sites; - ΔS ([8]; ITC, 25°C, pH 6.0): 1.54 ± 0.05 cal/mol of sites/deg; - ΔH ([9]; pH 6.0): 4.43 ± 0.01 kcal/mol of sites; - ΔS ([9]; pH 6.0): 3.70 ± 0.03 cal/mol of sites/deg; Kd [10]: 3.2 ± 0.2 mM; - ΔH ([10]; ITC, 25°C, pH 6.0): 3.9 ± 0.1 kcal/mol of sites; - ΔS ([10]; ITC, 25°C, pH 6.0): 1.7 ± 0.2 cal/mol of sites/deg"
CC(=O)NC1C(O)CC(OCC2OC(OC3C(CO)OC(O)C(O)C3O)C(O)C(O)C2O)(C(=O)O)OC1C(O)C(O)CO (stereo not shown) [6'-sialyllactose],–,~20,~28,saturation transfer was observed,"6,100 RFU",saturation transfer was observed,~7,~23,–
O=C[C@H](O)[C@@H](O)[C@@H](O)[C@H](O)CO [galactose],No binding inhibition,–,–,–,–,–,–,–,–
O=C[C@H](O)[C@@H](O)[C@H](O)CO [xylose],–,–,–,no interaction with the proteins could be measured,–,no interaction with the proteins could be measured,–,–,–
transferrin: glycoprotein with 3'- and 6'-sialyl-N-acetyllactosamine terminal structures,–,–,–,–,–,–,–,–,"binding on glycan microarray (in words) ([1]; 10 μg/ml protein in TBS-T pH 7.2, threshold five times background): did not bind"
